Experimental data as given in US10104890B2, “Compositions and methods for controlling pesticide resistant pests” (Rothamsted Research Limited, priority 2011, dated 2018).

Test system: Myzus persicae clone 5191A
Assay type: in vivo
Conditions: for LC50 (lethal concentration to kill 50% of the population): LC50 of imidacloprid, alone or after 5 h pre-treatment with 0.25 μL of 1 g L−1 synergist, apterous aphids, topical, scored 72 h after treatment, probit analysis; for SF = synergism factor (LC50 unsynergised/LC50 synergised): with imidacloprid, 1 g L−1 synergist, 5 h pre-treatment, clone 5191A
Experimental: Aphids for bioassays were reared on Chinese cabbage leaves (Brassica rapa L. var. Pekinensis c.v Wong Bok) (Brassicaceae) in small plastic box-cages (Blackman boxes) (Stewart Plastics Ltd, Surrey, UK) maintained at 18±2° C. with a 16 h light: 8 h dark photoperiod. Each box contained two adult aphids placed on a leaf and left for 5 days to produce nymphs. After the 5th day the adults were removed and their esterase levels determined to ensure that no contamination or loss of esterase expression (reversion) among the different clones had occurred during the rearing process. After approximately 13-15 days adults were used for bioassays.
Clone 5191A was collected from tobacco in Greece in 2007, and established from a single parthenogenetic female.
Apterous aphids were transferred from Blackman boxes (section 2.1.1) to the abaxial surface of Chinese cabbage leaf discs (approximately 10 adults per leaf disc) held on 1% agar in plastic containers (4 cm in diameter, A.W. Gregory & Co Limited, Kent, UK). The upper edge of each container was coated with Fluon® (Whitford Plastics, Cheshire, UK) to prevent aphid escape from the leaf surface. Netted lids were added to ensure apterous aphids could not escape. After allowing 30 min for the aphids to settle, each was dosed with 0.25 μL of 1 g L^−1 synergist dissolved in acetone or acetone only using a Burkard microapplicator (Burkhard Scientific, Middx, UK). Synergist concentrations chosen conferred no significant mortality compared to the acetone control treatment in preliminary bioassays. Five hours later, aphids were further treated with 0.25 μL imidacloprid in acetone at a range of concentrations, at least 3 replicates per concentration per bioassay. Controls were treated with 0.25 μL of acetone or 1 g L^−1 synergist in acetone and after 5 h with a further 0.25 μL of acetone.
Treated aphids were kept at 18±2° C. and 16 h light: 8 h dark photoperiod and scored 72 h after treatment. Aphids incapable of co-ordinated movement (after gentle touching with a paint brush if necessary) were scored as dead. All bioassays were performed a minimum of three times.
Pooled raw data from at least three separate bioassays were analysed by probit analysis using the statistical programme PC Polo Plus (LeOra, Software, Berkeley, USA). Polo Plus programme calculated the concentrations required to kill 50% of the population (LC50), 95% confidence limits (CL95%), slopes with standard errors (SE), chi-square (χ2) and degrees of freedom (df). Natural response was also estimated when control mortality occurred.

## CCCCOCCOCCOCc1cc2c(cc1CCC)CCC2 [EN 14-5]
  LC50 (lethal concentration to kill 50% of the population): 41.5 ppm
  SF = synergism factor (LC50 unsynergised/LC50 synergised): 2.17

## CCCCOCCOCCOCc1cc2c(cc1CCC)CCO2 [EN 16-5]
  LC50 (lethal concentration to kill 50% of the population): 12.2 ppm
  SF = synergism factor (LC50 unsynergised/LC50 synergised): 7.41

## CC#CCOc1cc2c(cc1CCC)CCO2 [EN 16-17]
  LC50 (lethal concentration to kill 50% of the population): 7.11 ppm
  SF = synergism factor (LC50 unsynergised/LC50 synergised): 12.7

## CC#COCc1ccc2c(c1)CCO2 [EN 16-18]
  LC50 (lethal concentration to kill 50% of the population): 18.4 ppm
  SF = synergism factor (LC50 unsynergised/LC50 synergised): 4.91

## CC#CCO[C@H](C)c1ccc(OC)c(OC)c1 [EN 25-10]
  LC50 (lethal concentration to kill 50% of the population): 4.88 ppm
  SF = synergism factor (LC50 unsynergised/LC50 synergised): 18.5

## CC#CCOCc1cc2c(cc1CCC)OCO2 [EN 126]
  LC50 (lethal concentration to kill 50% of the population): 0.31 ppm
  SF = synergism factor (LC50 unsynergised/LC50 synergised): 292

## CCCCCCCCCCCCc1ccc2c(c1)OCO2 [EN 129]
  LC50 (lethal concentration to kill 50% of the population): 28.4 ppm
  SF = synergism factor (LC50 unsynergised/LC50 synergised): 3.18

## CC#CCOc1ccc2c(c1)OCO2 [EN 163]
  LC50 (lethal concentration to kill 50% of the population): 2.98 ppm
  SF = synergism factor (LC50 unsynergised/LC50 synergised): 30.3

## CC#CCOc1cc2c(cc1CCC)OCO2 [EN 164]
  LC50 (lethal concentration to kill 50% of the population): 1.25 ppm
  SF = synergism factor (LC50 unsynergised/LC50 synergised): 72.4

## CCCCOCCOCCOCc1cc2c(cc1CCC)OCO2 [PBO, piperonyl butoxide]
  LC50 (lethal concentration to kill 50% of the population): 6.22 ppm
  SF = synergism factor (LC50 unsynergised/LC50 synergised): 14.5

## O=[N+]([O-])NC1=NCCN1Cc1ccc(Cl)nc1 [imidacloprid]
  LC50 (lethal concentration to kill 50% of the population): 90.4 ppm
